# Assay results published in US4363793A, “Diagnostic radiopharmaceuticals for localization in target tissues exhibiting a regional pH shift relative to surrounding tissues” (State University of New York, priority 1980, dated 1982).
# Columns and labels:
# [1] = Organ distribution of Se-75 labeled compound in rats after intravenous injection; type: in vivo, Spraque-Dawley male rats; details: rat, i.v.; for % dose/organ, blood: blood assumed 7% of body weight; for % dose/organ, muscle: muscle assumed 40% of body weight
# Text: FIGS. 2 and 3 respectively show the relative concentration of Se-75 labeled di-β-(piperidinoethyl)-selenide and di-β-(morpholinoethyl)-selenide in rat brains at several time intervals after an intravenous injection of a dose of the respective compounds into the rat. As is shown in FIG. 3, and also in Table 4, two minutes after an intravenous injection of Se-75 labeled di-β-(morpholinoethyl)-selenide, the brain uptake of the radiopharmaceutical compound reaches a value of 3.19%. […] The terms uptake, % uptake or % dose are used to describe the percentage of the radiopharmaceutical compound contained in a given organ or tissue as compared to the total initial dose. The numerical values in FIGS. 2 and 3 and Tables 3 and 4 represent such percentages.
# Studies of distribution of the radiopharmaceutical compounds of the present invention in rats, the results of which are reflected in FIGS. 2 and 3 and Tables 3 and 4, were conducted according to standard practice in the pharmacological sciences, and therefore need not be described here in great detail. Nevertheless, for the sake of complete understanding of the present invention, some experimental details of these studies are briefly described below:
# Spraque-Dawley male rats (220-300 g) were injected intravenously (femoral vein) with a 0.2 ml solution (0.5-2 micro Ci) under light ether anaesthesia. At different time periods after the injection, the animals were sacrificed and organs of interest were excised and counted in a well counter. Percent dose was estimated by comparison of tissue counts to suitably diluted aliquots of the injected material. Total activities in blood and muscle were calculated by assuming that they are 7% and 40% of the body weight respectively.
# [2] = n-octanol-aqueous medium partition coefficient pH correlation; type: physicochemical
# Text: The n-octanol-aqueous medium partition coefficients of the compound are readily measured in accordance with standard practice in the prior art. Briefly, such measurements include the steps of dissolving a known amount of the compound in an aqueous buffer of a predetermined pH and extracting the buffer solution with a known amount of n-octanol until an equilibrium of distribution of the compound between the aqueous and n-octanol phases occurs. The concentration of the compound in both phases is then measured by suitable analytical means, such as ultraviolet spectrophotometry; the partition coefficient being the ratio of the two measured concentrations.
# For the purposes of evaluating a plurality of radioactive compounds for use in the novel method of the present invention, the n-octanol-aqueous medium partition coefficients of the compounds were measured in the following manner. The radioactive compound was mixed with 1.0 ml of n-octanol and 1.0 ml of buffer of the desired predetermined pH. The radioactivity of this mixture was counted, and the mixture was placed in a water bath shaker at 37° C. for 2 hours. After centrifugation at 3,000 rpm for 5 minutes, the n-octanol layer was separated and its radioactivity counted. The partition coefficient of the compound was calculated by the following equation: [formula]
# [3] = cited from earlier work
smiles,measurement,setting,value
C1CCN(CC[Se]CCN2CCCCC2)CC1 [di-β-(piperidinoethyl)-selenide],penetration of the blood brain barrier (in words),[1],capable of penetrating the blood brain barrier
same,"% dose/organ, heart",[1]; 2 min,3.04%
same,"% dose/organ, kidney",[1]; 2 min,7.14%
same,"% dose/organ, liver",[1]; 2 min,12.0%
same,"% dose/organ, lung(2)",[1]; 2 min,20.0%
same,"% dose/organ, pancreas",[1]; 2 min,0.62%
same,"% dose/organ, spleen",[1]; 2 min,0.51%
same,"% dose/organ, brain (brain uptake)",[1]; 2 min (morpholinoethyl: average of 5 samples),1.09%
same,"% dose/organ, blood",[1]; 2 min,4.58%
same,"% dose/organ, muscle",[1]; 2 min,7.39%
same,"% dose/organ, brain (brain uptake)",[1]; 30 min,1.49%
same,"% dose/organ, heart",[1]; 30 min,0.89%
same,"% dose/organ, kidney",[1]; 30 min,9.21%
same,"% dose/organ, liver",[1]; 30 min,14.3%
same,"% dose/organ, lung(2)",[1]; 30 min,2.83%
same,"% dose/organ, pancreas",[1]; 30 min,1.42%
same,"% dose/organ, spleen",[1]; 30 min,1.31%
same,"% dose/organ, blood",[1]; 30 min,0.87%
same,"% dose/organ, muscle",[1]; 30 min,13.4%
same,"% dose/organ, brain (brain uptake)",[1]; 1 hr,1.53%
same,"% dose/organ, heart",[1]; 1 hr,0.35%
same,"% dose/organ, kidney",[1]; 1 hr,4.43%
same,"% dose/organ, liver",[1]; 1 hr,16.6%
same,"% dose/organ, lung(2)",[1]; 1 hr,1.92%
same,"% dose/organ, pancreas",[1]; 1 hr,1.07%
same,"% dose/organ, spleen",[1]; 1 hr,0.90%
same,"% dose/organ, blood",[1]; 1 hr,0.75%
same,"% dose/organ, muscle",[1]; 1 hr,16.1%
same,"% dose/organ, brain (brain uptake)",[1]; 2 hr,1.63%
same,"% dose/organ, heart",[1]; 2 hr,0.19%
same,"% dose/organ, kidney",[1]; 2 hr,2.89%
same,"% dose/organ, liver",[1]; 2 hr,15.9%
same,"% dose/organ, lung(2)",[1]; 2 hr,0.85%
same,"% dose/organ, pancreas",[1]; 2 hr,0.84%
same,"% dose/organ, spleen",[1]; 2 hr,1.03%
same,"% dose/organ, blood",[1]; 2 hr,0.65%
same,"% dose/organ, muscle",[1]; 2 hr,12.0%
same,"% dose/organ, brain (brain uptake)",[1]; 4 hr,1.32%
same,"% dose/organ, heart",[1]; 4 hr,0.16%
same,"% dose/organ, kidney",[1]; 4 hr,1.53%
same,"% dose/organ, liver",[1]; 4 hr,16.0%
same,"% dose/organ, lung(2)",[1]; 4 hr,0.82%
same,"% dose/organ, pancreas",[1]; 4 hr,0.60%
same,"% dose/organ, spleen",[1]; 4 hr,0.61%
same,"% dose/organ, blood",[1]; 4 hr,0.59%
same,"% dose/organ, muscle",[1]; 4 hr,11.9%
same,"% dose/organ, brain (brain uptake)",[1]; 6 hr,1.18%
same,"% dose/organ, kidney",[1]; 6 hr,0.64%
same,"% dose/organ, liver",[1]; 6 hr,7.66%
same,"% dose/organ, spleen",[1]; 6 hr,0.34%
same,"% dose/organ, blood",[1]; 6 hr,0.51%
same,"% dose/organ, muscle",[1]; 6 hr,11.5%
same,"% dose/organ, brain (brain uptake)",[1]; 24 hr,0.91%
same,"% dose/organ, heart",[1]; 24 hr,0.03%
same,"% dose/organ, kidney",[1]; 24 hr,0.38%
same,"% dose/organ, liver",[1]; 24 hr,4.79%
same,"% dose/organ, lung(2)",[1]; 24 hr,0.31%
same,"% dose/organ, pancreas",[1]; 24 hr,0.11%
same,"% dose/organ, spleen",[1]; 24 hr,0.10%
same,"% dose/organ, blood",[1]; 24 hr,0.20%
same,"% dose/organ, muscle",[1]; 24 hr,2.81%
same,"% dose/organ, brain (brain uptake)",[1]; 3 day,0.16%
same,"% dose/organ, kidney",[1]; 3 day,0.12%
same,"% dose/organ, liver",[1]; 3 day,1.72%
same,"% dose/organ, spleen",[1]; 3 day,0.01%
same,"% dose/organ, blood",[1]; 3 day,0.08%
same,"% dose/organ, muscle",[1]; 3 day,0.40%
same,partition coefficient pH dependence (in words),"[2]; n-octanol-aqueous medium, pH 6.6 to 7.6",much higher partition coefficient pH dependence
same,partition coefficient / lipid solubility at the pH of the blood (in words),"[2]; pH 7.4, morpholinoethyl vs piperidinoethyl selenide",less lipid soluble at the pH of the blood
Cc1c(I)c(=O)n(-c2ccccc2)n1C [iodoantipyrine],penetration of brain tissue (in words),[3]; in vivo,able to penetrate brain tissue
same,retention in brain (in words),[3]; within one hour after penetration,almost completely leaves the brain by diffusion
